Molecular target: Serine/threonine-protein kinase PLK3 (Homo sapiens) (UniProt Q9H4B4)
Test: inhibition of PLK3 peptide phosphorylation – biochemical, Z'-LYTE FRET, direct format, human, dose response (AID 1671358)
Settings: Z'-LYTE FRET kinase assay

Serine/threonine-protein kinase PLK3 (Homo sapiens), sequence (Q9H4B4 whole entry, looked up): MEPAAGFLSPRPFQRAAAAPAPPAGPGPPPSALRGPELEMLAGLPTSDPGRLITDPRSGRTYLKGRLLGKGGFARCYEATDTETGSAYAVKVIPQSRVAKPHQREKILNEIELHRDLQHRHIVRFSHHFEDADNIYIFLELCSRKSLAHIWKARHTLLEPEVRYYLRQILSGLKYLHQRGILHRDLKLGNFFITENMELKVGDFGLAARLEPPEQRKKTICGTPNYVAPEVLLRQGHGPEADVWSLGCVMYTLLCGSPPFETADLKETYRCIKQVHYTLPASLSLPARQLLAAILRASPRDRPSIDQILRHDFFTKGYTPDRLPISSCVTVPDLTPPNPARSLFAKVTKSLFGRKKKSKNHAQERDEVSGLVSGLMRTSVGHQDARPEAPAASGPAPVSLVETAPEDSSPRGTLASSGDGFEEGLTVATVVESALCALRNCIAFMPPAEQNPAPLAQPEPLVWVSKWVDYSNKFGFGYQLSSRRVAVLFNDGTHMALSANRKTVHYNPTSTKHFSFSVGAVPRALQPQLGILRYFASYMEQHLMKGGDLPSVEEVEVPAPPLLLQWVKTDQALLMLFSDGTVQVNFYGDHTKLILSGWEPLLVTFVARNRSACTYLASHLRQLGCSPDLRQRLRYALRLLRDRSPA

Brc1c(Br)c(Br)c2n[nH]nc2c1Br
IC50: 1.85 µM
